Source: EP0278661A1, “A thiophosphoric acid ester as an insecticide, nematocide and acaricide” (priority 1987, dated 1988)

How the values were obtained:
[1] = system: southern corn rootworm (Diabrotica undecimpunctata howardi BABER); assay: Soil treatment test against southern corn rootworm larvae (mortality); type: in vivo; conditions: 48 h, 1 ppm active ingredient in soil, third instar larvae, two days after liberation
Experimental: The emulsifiable concentrate of each test compound formulated according to Formulation example 1 was diluted with water, and 5 ml of the resulting aqueous dilute liquor was mixed with 50 g of soil to make the concentration of active ingredient in soil 1 ppm. The soil was then placed in a polyethylene cup of 5.6 cm in diameter and 5.8 cm high, and two pieces of corn having roots of 2 to 3 cm long were planted. At the same time, ten third instar larvae of southern corn rootworm (Diabrotica undecimpunctata howardi BABER) were liberated in the cup. Two days after liberation, the number of the dead and alive larvae was counted to obtain mortality (%).

[2] = Acute oral toxicity in mouse (mortality); conditions: in vivo; oral (stomach sound), 100 mg/kg, ICR mouse, observed for 7 days, 5 head per group; read-out: Mortality (%) at the dose of 100 mg/kg
Experimental: After fasting of about 24 hours, ICR series mouse was weighed by an electronic balance. A stomack sound for mouse was attached to a syringe filled with test solution, the syringe end was slid to innermost of the mouse's throat to insert it to the stomack, and a definite amount of the test solution was injected. 4 Hours after the administration, a bait and water were given to the mouse for 7 days to observe a mortality (5 head per group).

[3] = system: root-knot nematodes (Meloidogyne sp.); assay: Soil treatment test against root-knot nematodes on tomato plants (degree of root-knot); type: in vivo; set-up: key: -: No settlement; - to +: Not more than 10% as compared with untreated plot; +: 10% - 40% as compared with untreated plot; ++: 40% - 80% as compared with untreated plot; +++: The same as or more than untreated plot; conditions: observed three weeks after planting
Experimental: The emulsifiable concentrate of each test compound formulated according to Formulation example 1 was diluted with water, and 5 ml of the resulting aqueous dilute liquor was mixed with 600 g of soil contaminated with root-knot nematodes (Meloidogyne sp.) to make the concentration of active ingredient in soil 4 or 1 ppm. The soil was placed in a polyethylene cup of 12 cm in diameter and 8 cm in height, and three tomato plants of 3 to 4 leaf stage were planted.

[4] = system: carmine spider mite (Tetranychus cinnabarinus); assay: Spray and soil drench test against carmine spider mite on kidney bean (degree of damage); type: in vivo; set-up: key: -: Little damage is observed.; +: Slight damage is observed.; ++: Same damage as in the untreated plot is observed; conditions: 500 ppm spray plus soil drench, examined after 8 days
Experimental: Female adults of carmine spider mite (Tetranychus cinnabarinus) were made parasitic on the leaves of potted kidney bean in a primary leaf stage, at a rate of 10 adults per leaf, which had elapsed seven days after sowing, and stored in a constant-temperature room kept at 25°C. After six days, 15 ml of a dilute solution, previously prepared by diluting the emulsifiable concentrate of the following test compounds obtained according to Formulation example 1 with water so that the active ingredient concentration was 500 ppm, was sprayed thereon by means of a turn table. At the same time, soil drench was carried out with 2 ml of the dilute solution. After 8 days, the degree of damage of each kidney bean by mites was examined.
The degree of damage was classified into three stages, -, + and ++. - : Little damage is observed. + : Slight damage is observed. ++ : Same damage as in the untreated plot is observed.

[5] = concentration in the soil 1 ppm
[6] = concentration in the soil 4 ppm

SMILES | mortality at 1 ppm [1] [%] | mortality at 168 h [2] [%] | Extent of settlement [3, 5] | Extent of settlement [3, 6] | Degree of damage [4]
CCCSP(=O)(OCC)Oc1ccccc1 (stereo not drawn) [(A)] | 70 | 100 |  |  | 
CCOP(=O)(Oc1ccccc1)SC(C)C (stereo not drawn) [(B)] | 0 | 100 | +++ | + (10% - 40% as compared with untreated plot) | 
CCOP(=O)(Oc1ccccc1)SC(C)CC (stereo not drawn) [(C)] |  | 100 | +++ | - to + (Not more than 10% as compared with untreated plot) | 
Cc1cc(Cl)ccc1/N=C/N(C)C [Chlorodimeform] |  |  |  |  | +
CCOP(=O)(Oc1ccccc1)SC(C)(C)C (stereo not drawn) [Present compound, S-tert-butyl O-ethyl O-phenyl phosphorothiolate] | 100 | 0 | - to + (Not more than 10% as compared with untreated plot) | - | -
